US20180002400A1, “SHORT PEPTIDE-BASED THERAPEUTIC AGENT AND MEDICINAL COMPOSITION INCLUDING THE SAME FOR INHIBITING ACTIVITIES OF CANCER CELLS” (NATIONAL CHENG KUNG UNIVERSITY, priority 2015, published 2018)

B1: pPTX3/C: recombinant protein (SEQ ID NO:4) expressed and purified from prokaryotic expression system (E. coli); control group (protein)
chain: ETAILFPMRSKKIFGSVHPVRPMRLESFSACIWVKATDVLNKTILFSYGTKRNPYEIQLYLSYQSIVFVVGGEENKLVAEAMVSLGRWTHLCGTWNSEEGLTSLWVNGELAATTVEMATGHIVPEGGILQIGQEKNGCCVGGGFDETLAFSGRLTGFNIWDSVLSNEEIRETGGAESCHIRGNIVGWGVTEIQPHGGAQYVS
modifications: The 180th amino acid to 381th amino acid of Human sapiens PTX3 (pPTX3/C)
notes: control group

What was measured:
Type in all cases: cell-based, human
[1] = system: breast cancer MB231 cell; assay: Drug resistance (CDDP, 5-FU) induced by euPTX3, MTT assay; conditions: MB231 only co-cultured with euPTX3 2.5 μg/mL vs without euPTX3; FIG. 1D
Protocol: (§1) The cell density 1×10^4 cells/well of the breast cancer MB231 cell, the lung cancer A549 cell and the nasopharyngeal cancer HONE1 cell were co-cultured with the short peptides RI37, GI40 and KT44 (10 μg/mL or 225 nM of the short peptide) and the polypeptide euPTX3 (2.5 μg/mL) of Example 1. After 1 week of cultivation, those cancer cells were added with 40 μM of CDDP or 100 μM of 5-FU respectively and cultured for 48 hours. Based on the cell viability of the cells only co-cultured with the polypeptide euPTX3 (2.5 μg/mL) as 100%, the influence of drug resistance of the cancer cells of Example 2 using the short peptides of Example 1 could be determined according to the aforementioned MTT assay.

[2] = system: lung cancer A549 cell; assay: as above; conditions: A549 only co-cultured with euPTX3 2.5 μg/mL vs without euPTX3; FIG. 2B
Protocol: as §1

[3] = system: nasopharyngeal cancer HONE1 cell; assay: as above; conditions: HONE1 only co-cultured with euPTX3 2.5 μg/mL vs without euPTX3; FIG. 3B
Protocol: as §1

[4] = system: drug-resistant breast cancer MB231R (MBR) cells; assay: Cancer cell migration (Boyden chamber) induced by euPTX3
Protocol: [The procedure below names another cell line; the source lists this cell line under the same test.] (§2) The cell density 5×10^4 cells/well of the breast cancer MB231 cell, the lung cancer A549 cell and the nasopharyngeal cancer HONE1 cell were seeded into each upper insert of 24-well plate (containing 8-μm pore insert per well; BD Biosciences) for 19 hours, and each lower well was added with the short peptides RI37, GI40 and KT44 (10 μg/mL or 225 nM of the short peptide) and the polypeptide euPTX3 (2.5 μg/mL) of Example 1, for evaluating the influence of migration of the cancer cell of Example 2 using several short peptides of Example 1.
(§3) The cell density 5×10^4 cells/well of the breast cancer MB231 cell, the lung cancer A549 cell and the nasopharyngeal cancer HONE1 cell were seeded into each upper insert of Boyden chamber for 3 hours of cultivation.
(§4) And then, the medium in each upper insert was replaced by serum-free medium, and the medium in each lower well was added with the short peptides RI37, GI40, KT44 and the polypeptide euPTX3 of Example 1. The cells inside each upper insert were wiped with cotton swabs and removed after 16 hours of cultivation. Remaining cells that had migrated to the bottom of the insert membrane were stained by 4′,6-diamidino-2-phenylindole (DAPI; Invitrogen) and calculated under fluorescence microscopy with 200-fold magnification.

[5] = system: lung cancer A549 cell; assay: as above; conditions: A549 only co-cultured with euPTX3 2.5 μg/mL; FIG. 2C left panel
Protocol: as §2, §3, §4

[6] = system: nasopharyngeal cancer HONE1 cell; assay: as above; conditions: HONE1 only co-cultured with euPTX3 2.5 μg/mL; FIG. 3C left panel
Protocol: as §2, §3, §4

[7] = system: drug-resistant breast cancer MB231R (MBR) cells; assay: Cancer cell invasion (matrigel-coated insert) induced by euPTX3
[8] = system: lung cancer A549 cell; assay: as above; conditions: A549 only co-cultured with euPTX3 2.5 μg/mL; FIG. 2C right panel
Protocol: (§5) The cell density 5×10^4 cells/well of the breast cancer MB231 cell, the lung cancer A549 cell and the nasopharyngeal cancer HONE1 cell were seeded into each upper insert of 24-well plate (containing 8-μm pore insert per well; BD Biosciences), the upper insert and the lower well were separated by the polyethelene terephthalate membrane coated with matrigel (purchased from BD Bioscience), and cultured for 3 hours.
as §4, with “Next,” for “And then,”, “euPTX3 and pPTX3/C” for “euPTX3”, “4′, 6-diamidino-2-phenylindole” for “4′,6-diamidino-2-phenylindole”

[9] = system: nasopharyngeal cancer HONE1 cell; assay: as above; conditions: HONE1 only co-cultured with euPTX3 2.5 μg/mL; FIG. 3C right panel
Protocol: as §5
as §4, with “Next,” for “And then,”, “euPTX3 and pPTX3/C” for “euPTX3”, “4′, 6-diamidino-2-phenylindole” for “4′,6-diamidino-2-phenylindole”

Molecule | drug resistance to CDDP or 5-FU (cell viability) [1] | drug resistance to CDDP or 5-FU (cell viability) [2] | drug resistance to CDDP or 5-FU (cell viability) [3] | migrated cell numbers ([4]; breast cancer cells only co-cultured with euPTX3 2.5 μg/mL, FIG. 1E, 5B left panels) | migrated cell numbers [5] | migrated cell numbers [6] | invasive cell numbers ([7]; breast cancer cells only co-cultured with euPTX3 2.5 μg/mL, FIG. 1E, 5B right panels) | invasive cell numbers [8] | invasive cell numbers [9] | migrated cell numbers induced by the polypeptide euPTX3 ([4]; MB231R (MBR), identical molecular number: euPTX3 2.5 μg/mL, RI37 3.7 μg/mL, GI40 4 μg/mL, pPTX3/C 10 μg/mL, FIG. 5B left panel) | invasive cell numbers induced by the polypeptide euPTX3 ([7]; MB231R (MBR), identical molecular number: euPTX3 2.5 μg/mL, RI37 3.7 μg/mL, GI40 4 μg/mL, pPTX3/C 10 μg/mL, FIG. 5B right panel)
euPTX3: commercially available PTX3 product (R&D system Inc.), recombinant protein purified from mouse myeloma cells (NS0) | increase drug resistance to CDDP or 5-FU | increase drug resistance to CDDP or 5-FU | increase drug resistance to CDDP or 5-FU | increase migrated cell numbers | increase migrated cell numbers | increase migrated cell numbers | increase invasive cell numbers | increase invasive cell numbers | increase invasive cell numbers | – | –
B1 | – | – | – | – | – | – | – | – | – | can inhibit migrated cell numbers | can inhibit invasive cell numbers
